{
  "source": "patent US20210164015A1",
  "about": "“ANTIMICROBIAL SUSCEPTIBILITY TESTING USING MICRODROPLETS” (Becton, Dickinson and Company, priority 2018, published 2021)",
  "test_system": "E. coli",
  "test": "microdroplet antibiotic susceptibility testing (AST) using a fluorescent viability indicator",
  "format": "cell-based",
  "conditions": "for fluorescence intensity of microdroplets (fluorescent viability indicator): E. coli encapsulated in microdroplets",
  "excerpt": "FIGS. 3A-3D depict results of an embodiment of microdroplet antibiotic susceptibility testing using a fluorescent viability indicator. FIG. 3A depicts change in fluorescent intensity in microdroplets at 1-hour, 2-hour, and 3-hour time points in samples without antibiotic (condition A) and samples with antibiotic at two times MIC (condition B). FIG. 3B depicts micrographs of microdroplets under the conditions of FIG. 3A.\nSome embodiments provided herein relate to a first mode for determining microbial viability. A first mode for determining microbial viability is schematically depicted in FIG. 1. As described herein, a first mode for determining microbial viability includes providing a sample having microbes therein, dividing the sample into a number of portions, preparing microdroplets encapsulating microbes from the sample, either before or after the portions are formed (FIG. 1 depicts forming portions first), contacting each portion to a different concentration of an antimicrobial of interest either before or after preparing the microdroplets (FIG. 1 depicts adding an antibiotic prior to forming microdroplets), and measuring viability of the microbes by measuring a signal of microbial viability. Measuring a signal of microbial viability may be performed by obtaining a measure of microbial viability from a discrete subset of microdroplets, or a plurality of discrete subsets of microdroplets, from a population of microdroplets. The results for the measurements from discrete subsets of microdroplets at a first time point can then be combined to generate a result for the portion of the sample from which the microdroplet(s) were taken at this first time point. This process can be repeated at additional time points to determine microbial viability in that portion over time, thereby determining the susceptibility of the microbe to a given concentration of antimicrobial. Typically, it is not necessary to measure the exact same population of microdroplets at the first and subsequent time points, as long as the population of microdroplets measured at each time point are representative of the portion of the sample from which they are taken. The results from the various portions exposed to different concentrations of antimicrobial can then be used to determine the susceptibility of the microbe to the antimicrobial. […] Conversely, an increase in the measure of microbial viability over time indicates growth of microbes in the concentration of antimicrobial present in the portion of the sample from which the measurements were made. A minimum inhibitory concentration can be determined utilizing the results of antimicrobial susceptibility and/or microbe growth from the several portions of the sample exposed to different concentrations of antimicrobial. […]",
  "data": [
    {"smiles": "CC1(C)S[C@@H]2[C@H](NC(=O)[C@H](N)c3ccccc3)C(=O)N2[C@H]1C(=O)O", "note": "[ampicillin]", "values": [
      {"measurement": "fluorescence intensity of microdroplets (fluorescent viability indicator)", "setting": "antibiotic at 2×MIC (Condition B), 1 hour incubation (t1)", "result": "remained low"},
      {"measurement": "fluorescence intensity of microdroplets (fluorescent viability indicator)", "setting": "antibiotic at 2×MIC (Condition B), 2 hours and 3 hours incubation (t2, t3)", "result": "remained low"},
      {"measurement": "E. coli growth in microdroplets", "setting": "antibiotic at 2×MIC (Condition B), 2 hours and 3 hours, inferred from fluorescence intensity", "result": "no E. coli growth"},
      {"measurement": "presence of E. coli in micrographs of microdroplets (FIG. 3D)", "setting": "microdroplets exposed to antibiotic at 2×MIC (Condition B)", "result": "no E. coli is present"}
    ]}
  ]
}
